PMC13338763, “Harnessing albumin as a carrier for the delivery of anti-HIV drugs to the lymphatic system” (Acta biomaterialia, 2025)
In brackets after ≈: the same amount, converted by molar mass.

Experiments:
BSA = BSA (Bos taurus, UniProt P02769); test: Gel retardation study with BSA; type: binding, bovine; conditions: in words
Description: Twenty (20) μg EB, hEB, hEB-platin, or hEB-DTG were mixed with or without various amounts of BSA, globulin, fibrinogen or FBS in 200 μL saline water, then 40 μL of the mixed solution were loaded to 1.5 % agarose gel and run under 120 V for 30 min.

HUVEC monolayer = test: Transwell study: transport across a HUVEC monolayer, flow cytometry of HEK293T cells in lower chamber; type: cell-based; conditions: albumin-bound, 8 h, in words
Description: HEK293T were seeded to 6-well plates as lower chamber and HUVEC were seeded to Corning (NY, USA) 6-well plate inserts (0.4 μm pore size) in another plate as upper chamber, respectively. After incubation and the cell layer on the upper chamber became intact, the culture medium in the inserts was replaced by fresh medium containing 0, 5 or 20 μg/mL filipin and 0 or 10 μg/mL LPS for overnight incubation. Next, the culture medium in the inserts was replaced with fresh medium containing 10 μM EB, hEB or hEB-DTG and 2 mg/mL BSA, then the inserts were moved to the wells cultured with HEK293T cells for incubation of 8 h at 37 °C. After that, HEK293T cells in the lower chambers were washed with cold PBS.
EB signals in HEK293T cells were quantified by flow cytometry. Fluorescence was examined at an excitation wavelength of 532 nm and an emission wavelength of 660 nm. 10 × 10^4 events were collected for each sample.

HEK293T cells = test: Cellular uptake study in vitro (flow cytometry); type: cell-based; conditions: in words
Description: HEK293T or HUVEC cells were seeded to 6-well plates. After overnight incubation, the culture medium was replaced by fresh medium containing 10 μM EB and 2, 5, or 20 mg/mL BSA for incubation of 0.5, 1 or 3 h at 37 °C. Later, cells were washed with cold PBS and fixed with PBS containing 4 % (w/v) formaldehyde.
Cellular uptake of different treatments was quantified by flow cytometry. Fluorescence was examined at an excitation wavelength of 532 nm and an emission wavelength of 660 nm. 10 × 10^4 events were collected for each sample.

[1] = Distribution in LN tissue and cells in LNs after i.v. injection (fluorescence microscopy, flow cytometry); type: in vivo; conditions: in words
Description: Five (5) μM/kg EB, hEB or hEB-DTG were i.v. injected into mice pretreated intraperitoneally with or without 2.5 mg/kg LPS for 24 h. After 24 h, LNs from different sites were collected and their signals of EB were checked under fluorescent microscopy. To evaluate the EB signals in various types of cells, LNs were disrupted mechanically using scissors, digested with a mixture of deoxyribonuclease I (0.3 mg/mL, Sigma-Aldrich) and TL Liberase (0.25 mg/mL, Roche, IN, USA) in serum-free RPMI-1640 at 37 °C for 30 min, and dispersed through a 40 μm cell strainer (BD Biosciences, CA, USA). After red blood cell lysis, live/dead cell discrimination was performed using a Zombie NIR Fixable Viability Kit (BioLegend, CA, USA, dilution: 1/1000) at 4 °C for 30 min in DPBS. Surface staining was performed at 4 °C for 30 min in FACS staining buffer (1 × phosphate-buffered saline/5 % FBS/0.5 % sodium azide) containing designated antibody cocktails (PerCP anti-mouse CD45 antibody, Brilliant Violet 785 anti-mouse CD4 antibody, FITC anti-mouse CD8 antibody, APC anti-mouse CD11b antibody, APC/Cyanine7 anti-mouse F4/80 antibody, Pacific Blue anti-mouse CD19 antibody and AF647 anti-mouse CD27 antibody; dilution: 1/200 for all antibodies). Flow cytometry was performed with LSRII (BD Biosciences) and Aurora (Cytek Biosciences, CA, USA) instruments and analyzed by FlowJo (BD Biosciences). The EB signals in each type of cell were quantified as mentioned above.

Aqueous solubility = type: physicochemical; conditions: water
[2] = Release of DTG from hEB-DTG (storage stability and in vitro release kinetics, HPLC-MS); type: physicochemical; conditions: for DTG released (cumulative): PBS
TZM-bl cells = test: Cell viability assay (CellTiter-Glo 2.0); type: cell-based; conditions: 48 h
Description: DTG and hEB-DTG prodrug cytotoxicity was measured at different concentrations against TZM-bl reporter cell line in the presence or absence of HIV-WT virus using the CellTiter-Glo™ 2.0 Assay (Promega, WI, USA) according to the manufacturer’s protocol. TZM-bl cells were seeded in the 96-well white plate at a density of 1 × 10^4 cells/well, and after 24 h, the cells were infected with HIV-WT virus and treated with DTG and hEB-DTG in a concentration range (diluted 1:100) from 3 × 10^−1 mg/mL to 3 × 10^−15 mg/mL. After 48 h, cells were subjected to CellTiter-Glo™ 2.0 Assay (Promega). The CellTiter-Glo™ 2.0 Reagent was equilibrated to room temperature and gently mixed. 100 μL of CellTiter-Glo™ 2.0 Reagent was added to each well containing 100 μL of cells in the medium. Contents were shaken in an orbital shaker for 2 min and incubated at room temperature for precisely 10 min, and then luminescence was measured with a Varioskan LUX Multimode Microplate Reader. Untreated/infected cells were used as a baseline control. Viability of cells was presented as a percentage of OD values of the control cells. For each assay run, data points were collected in triplicate.

HIV-WT virus = test: Drug susceptibility assay (luciferase reporter in TZM-bl cells); type: cell-based, human immunodeficiency virus; conditions: TZM-bl cells infected with HIV-WT, 48 h
Description: DTG and hEB-DTG luciferase expression levels were measured at different concentrations against TZM-bl reporter cell line in the presence of HIV-WT virus using the Britelite Plus Ultra-High Sensitivity Luminescence Reporter Gene Assay System (Revvity, MA, USA) according to the manufacturer’s protocol. TZM-bl cells were seeded in clear bottom white 96-well plate in a total volume of 200 μl DMEM-10 complete (+ 10 % FBS + 1 % penicillin/streptomycin) at a density of 1 × 10^4 cells/well. After 24 h, the cells were infected with the HIV-WT virus and treated with DTG and hEB-DTG in a concentration range (serial diluted 1:100) from 3 × 10^−1 mg/mL to 3 × 10^−15 mg/mL in PRF-10 complete media (+10 % FBS + 1 % penicillin/streptomycin). After 48 h of incubation, the cells were subjected to Britelite Plus Ultra-High Sensitivity Luminescence Reporter Gene Assay System (Revvity). The Britelite plus Lyophilized Substrate was reconstituted with the given Britelite Plus Reconstitution Buffer. After gently inverting and settling the solution for 5 min, 100 μL of the reconstituted Britelite Substrate solution was added to each well containing 100 μL of cells in the medium. Luminescence was measured with a Varioskan LUX Multimode Microplate Reader precisely after 2 min. Untreated/infected cells were used as baseline control. The inhibitory concentrations of each drug were presented as a percentage of OD value of the control cells. For each assay run, data points were collected in triplicate.

[3] = PK study: DTG in serum by HPLC-MS; type: in vivo, mice
Description: Five (5) mg/kg DTG, or hEB-DTG containing equivalent amount of DTG were i.v. injected into mice. After 1, 4, 12, 24 or 48 h, serum and LNs were collected. Samples were homogenized and vortex in 1 mL mixture of water and methanol (1/1, v/v), and then another 1 mL mixture of methanol and acetonitrile (1/1, v/v) was added for extraction. After centrifugation at 12,500 g for 10 min, the supernatants were collected for measurement under HPLC-MS with a previously reported method. For hydrolysis of the ester bond in hEB-DTG to release free DTG, the biological samples suspension mentioned above were incubated in 300 mg/mL guanidine hydrochloride solution at 80 °C for 24 h before extraction.

BSA, sequence (P02769 25-607): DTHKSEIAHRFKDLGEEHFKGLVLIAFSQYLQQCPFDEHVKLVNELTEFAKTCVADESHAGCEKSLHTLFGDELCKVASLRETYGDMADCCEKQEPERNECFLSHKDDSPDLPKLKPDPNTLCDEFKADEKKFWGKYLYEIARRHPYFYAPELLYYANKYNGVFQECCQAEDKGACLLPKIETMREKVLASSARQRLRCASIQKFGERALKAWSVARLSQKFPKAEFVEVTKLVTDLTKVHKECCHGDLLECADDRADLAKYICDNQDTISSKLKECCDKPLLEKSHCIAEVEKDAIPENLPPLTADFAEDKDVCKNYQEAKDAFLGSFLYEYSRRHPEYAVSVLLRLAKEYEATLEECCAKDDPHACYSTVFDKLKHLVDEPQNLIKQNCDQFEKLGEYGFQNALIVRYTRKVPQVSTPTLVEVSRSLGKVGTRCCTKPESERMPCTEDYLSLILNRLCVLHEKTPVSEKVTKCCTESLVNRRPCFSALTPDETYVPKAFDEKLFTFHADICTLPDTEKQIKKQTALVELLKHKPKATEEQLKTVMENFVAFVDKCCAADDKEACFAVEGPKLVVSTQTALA

## Cc1cc(-c2ccc(NCC(=O)Oc3c4n(cc(C(=O)NCc5ccc(F)cc5F)c3=O)C[C@@H]3OCC[C@@H](C)N3C4=O)c(C)c2)ccc1/N=N/c1ccc2c(S(=O)(=O)O)cc(S(=O)(=O)O)c(N)c2c1O [hEB-DTG]
BSA
  binding affinity for BSA: maintained strong binding ability
HUVEC monolayer
  transport across endothelial cell monolayer: successfully transported
HEK293T cells
  cellular uptake: efficiently internalized
[1]; 24 h post i.v. injection
  fluorescence signal in LNs: comparable to that of hEB alone
[1]; flow cytometry
  uptake by immune cell populations in LNs: significant EB signals were detected in all cell types analyzed
Aqueous solubility
  solubility: 9640 µg/mL (≈ 9.62 mM)
[2]; 37 °C, over 96 h
  DTG released (cumulative): ~ 60%
[2]; 37 °C, within 24 h
  DTG released (cumulative): ~ 30%
[2]; 37 °C, serum
  DTG release in serum compared with PBS: slower
[2]; over 30 days at room temperature, storage conditions
  DTG released: 0.83%
TZM-bl cells
  concentrations above which cell viability began to decline: exceeded 1 μg/mL
  concentrations with minimal cytotoxicity: below 100 ng/mL
HIV-WT virus
  antiviral potency relative to free DTG: slightly less potent
  concentrations that potently inhibited HIV-WT replication: ≥ 10 ng/mL
[3]; 1 h post-injection
  released DTG concentration in blood vs free DTG group: slightly higher

## C[C@@H]1CCO[C@H]2Cn3cc(C(=O)NCc4ccc(F)cc4F)c(=O)c(O)c3C(=O)N12 [DTG, dolutegravir]
Aqueous solubility
  solubility: 40 µg/mL (≈ 0.0954 mM)
TZM-bl cells
  concentrations above which cell viability began to decline: exceeded 1 μg/mL
  concentrations with minimal cytotoxicity: below 100 ng/mL
HIV-WT virus
  concentrations that potently inhibited HIV-WT replication: ≥ 10 ng/mL
[3]; mouse, serum, iv, single i.v. injection of free DTG 5 mg/kg, one-compartment model, read-out: CL, free DTG in serum (converted)
  clearance: 0.00411 mL/min
[3]; mouse, serum, iv, single i.v. injection of free DTG 5 mg/kg, one-compartment model, read-out: t1/2, free DTG in serum (converted)
  half-life: 217 min

## Cc1cc(-c2ccc(/N=N/c3ccc4c(S(=O)(=O)O)cc(S(=O)(=O)O)c(N)c4c3O)c(C)c2)ccc1N [hEB, half-truncated Evans Blue]
BSA
  binding affinity for BSA: retained strong binding affinity
